According to ChEMBL document CHEMBL1828532, “Synthesis and antitubercular evaluation of novel dibenzo[b,d]furan and 9-methyl-9H-carbazole derived hexahydro-2H-pyrano[3,2-c]quinolines via Povarov reaction” (Eur J Med Chem, 2011):
In brackets after ≈: the same amount, converted by molar mass.

Experiments:
[1] = Lipophilicity, log P of the compound; assay type: physicochemical; conditions: octanol/water
[2] = test system: Mycobacterium tuberculosis; assay: microbe, parasite or virus in culture; conditions: H37Rv, 672 h
Description: Antimycobacterial activity against Mycobacterium tuberculosis H37Rv after 28 days by agar dilution method

SMILES | logP [1] | MIC [2]
Cc1ccc2c(c1)[C@@H]1OCCC[C@@H]1[C@H](c1ccc3oc4ccccc4c3c1)N2 | 4.42 | 12.5 µg/mL (≈ 33.8 µM)
Cn1c2ccccc2c2cc([C@H]3Nc4ccc(F)cc4[C@@H]4OCCC[C@H]34)ccc21 | 4.25 | 3.13 µg/mL (≈ 8.1 µM)
Cn1c2ccccc2c2cc([C@H]3Nc4ccccc4[C@@H]4OCCC[C@H]34)ccc21 (relative stereo) | 4.1 | 12.5 µg/mL (≈ 33.9 µM)
c1ccc2c(c1)N[C@@H](c1ccc3oc4ccccc4c3c1)[C@H]1CCCO[C@@H]21 (relative stereo) | 3.92 | 25 µg/mL (≈ 70.3 µM)
c1ccc2c(c1)N[C@H](c1ccc3oc4ccccc4c3c1)[C@H]1CCCO[C@@H]21 (relative stereo) | 3.92 | 25 µg/mL (≈ 70.3 µM)
Cc1ccc2c(c1)[C@@H]1OCCC[C@@H]1[C@@H](c1ccc3oc4ccccc4c3c1)N2 (relative stereo) | 4.42 | 12.5 µg/mL (≈ 33.8 µM)
COc1ccc2c(c1)[C@@H]1OCCC[C@@H]1[C@H](c1ccc3oc4ccccc4c3c1)N2 (relative stereo) | 3.81 | 12.5 µg/mL (≈ 32.4 µM)
COc1ccc2c(c1)[C@@H]1OCCC[C@@H]1[C@@H](c1ccc3oc4ccccc4c3c1)N2 (relative stereo) | 3.81 | 12.5 µg/mL (≈ 32.4 µM)
Clc1ccc2c(c1)[C@@H]1OCCC[C@@H]1[C@H](c1ccc3oc4ccccc4c3c1)N2 (relative stereo) | 4.49 | 25 µg/mL (≈ 64.1 µM)
Clc1ccc2c(c1)[C@@H]1OCCC[C@@H]1[C@@H](c1ccc3oc4ccccc4c3c1)N2 (relative stereo) | 4.49 | 6.25 µg/mL (≈ 16 µM)
Brc1ccc2c(c1)[C@@H]1OCCC[C@@H]1[C@H](c1ccc3oc4ccccc4c3c1)N2 (relative stereo) | 4.76 | 12.5 µg/mL (≈ 28.8 µM)
Brc1ccc2c(c1)[C@@H]1OCCC[C@@H]1[C@@H](c1ccc3oc4ccccc4c3c1)N2 (relative stereo) | 4.76 | 6.25 µg/mL (≈ 14.4 µM)
Fc1ccc2c(c1)[C@@H]1OCCC[C@@H]1[C@H](c1ccc3oc4ccccc4c3c1)N2 (relative stereo) | 4.09 | 3.13 µg/mL (≈ 8.38 µM)
Fc1ccc2c(c1)[C@@H]1OCCC[C@@H]1[C@@H](c1ccc3oc4ccccc4c3c1)N2 (relative stereo) | 4.09 | 3.13 µg/mL (≈ 8.38 µM)
Cn1c2ccccc2c2cc([C@@H]3Nc4ccccc4[C@@H]4OCCC[C@H]34)ccc21 (relative stereo) | 4.1 | 25 µg/mL (≈ 67.8 µM)
Cc1ccc2c(c1)[C@@H]1OCCC[C@@H]1[C@H](c1ccc3c(c1)c1ccccc1n3C)N2 (relative stereo) | 4.58 | 25 µg/mL (≈ 65.4 µM)
Cc1ccc2c(c1)[C@@H]1OCCC[C@@H]1[C@@H](c1ccc3c(c1)c1ccccc1n3C)N2 (relative stereo) | 4.58 | 25 µg/mL (≈ 65.4 µM)
COc1ccc2c(c1)[C@@H]1OCCC[C@@H]1[C@@H](c1ccc3c(c1)c1ccccc1n3C)N2 (relative stereo) | 3.97 | 25 µg/mL (≈ 62.7 µM)
Cn1c2ccccc2c2cc([C@@H]3Nc4ccc(Cl)cc4[C@@H]4OCCC[C@H]34)ccc21 (relative stereo) | 4.65 | 12.5 µg/mL (≈ 31 µM)
Cn1c2ccccc2c2cc([C@H]3Nc4ccc(Cl)cc4[C@@H]4OCCC[C@H]34)ccc21 (relative stereo) | 4.65 | 6.25 µg/mL (≈ 15.5 µM)
Cn1c2ccccc2c2cc([C@@H]3Nc4ccc(Br)cc4[C@@H]4OCCC[C@H]34)ccc21 (relative stereo) | 4.93 | 25 µg/mL (≈ 55.9 µM)
Cn1c2ccccc2c2cc([C@H]3Nc4ccc(Br)cc4[C@@H]4OCCC[C@H]34)ccc21 (relative stereo) | 4.93 | 6.25 µg/mL (≈ 14 µM)
Cn1c2ccccc2c2cc([C@@H]3Nc4ccc(F)cc4[C@@H]4OCCC[C@H]34)ccc21 (relative stereo) | 4.25 | 6.25 µg/mL (≈ 16.2 µM)
CC[C@@H](CO)NCCN[C@@H](CC)CO [ETHAMBUTOL] | – | 3.13 µg/mL (≈ 15.3 µM)
NNC(=O)c1ccncc1 [ISONIAZID] | – | 0.1 µg/mL (≈ 0.729 µM)
CO[C@H]1/C=C/O[C@@]2(C)Oc3c(C)c(O)c4c(O)c(c(/C=N/N5CCN(C)CC5)c(O)c4c3C2=O)NC(=O)/C(C)=C\C=C\[C@H](C)[C@H](O)[C@@H](C)[C@@H](O)[C@@H](C)[C@H](OC(C)=O)[C@@H]1C [RIFAMPIN] | – | 0.2 µg/mL (≈ 0.243 µM)
